We go through four compounds from publication PMC13224100, “Esterase-Responsive Mitochondria-Targeted Hydropersulfide Donors Mitigate Doxorubicin Cardiotoxicity While Preserving Anticancer Activity” (Angewandte Chemie (International ed. in English), 2025).

Structures are written as SMILES. Where “and” joins values, the source holds several entries; their conditions need not be identical. Equal values may be shown once.

Data set [1] has as its system porcine liver esterase (PLE). Put plainly: Esterase-mediated RSSH release kinetics with HPE-IAM trapping (UPLC-MS). It is filed as biochemical. To be noted: precursor 25 μM, PLE 1 U mL^−1, HPE-IAM 250 μM, ammonium bicarbonate pH 7.4, DTPA, 37 °C; for half-life at 25 µM: pig, porcine liver esterase, read-out: t1/2 (min) Precursor consumption. The protocol:
We then assessed esterase-mediated activation of AST-2 by incubating it with porcine liver esterase (PLE) in the presence of β-(4-hydroxyphenyl)ethyl iodoacetamide (HPE-IAM, 10 equiv), a trapping agent for RSSH.[39] We anticipated that PLE-catalyzed hydrolysis would release RSSH, which would subsequently be trapped by HPE-IAM to generate RSS-HPE-AM (Figure 1a). […] In addition, a minor amount of dialkyl trisulfide formation is observed (Figures 1b and S5), which we attribute to the reaction of the released RSSH with the precursor AST-2.
Figure 1. a) Schematic of esterase-mediated RSSH release from AST-2 in the presence of the trapping agent HPE-IAM. b) Representative UPLC-MS traces showing time-dependent conversion of AST-2 (25 μM) to RSS-HPE-AM upon treatment with porcine liver esterase (1 U mL^−1) and HPE-IAM (250 μM) in 100 mM ammonium bicarbonate buffer (pH 7.4) containing the metal chelator diethylenetriaminepentaacetic acid (DTPA) (100 μM) at 37 °C. Aliquots were quenched with formic acid and analyzed by UPLC-MS. […] Rate constants and half-lives are reported as mean ± SD (n = 3). Curves represent best fits to single-exponential functions.
Figure 2. a) Reaction scheme showing esterase-triggered RSSH release from APT-1 via a two-step activation involving deacetylation and intramolecular cyclization. b) Representative UPLC-MS traces showing the time-dependent conversion of APT-1 (25 μM) to intermediate 1 and subsequent formation of RSS-HPE-AM in the presence of PLE (1 U mL^−1) and HPE-IAM (250 μM) at 37 °C. Asterisk indicates a minor impurity in the blank control. […] Rate constants and half-lives are reported as mean ± SD (n = 3). Curves represent best fits to single exponential functions as described in the text.
B. Kinetics of RSSH Generation.
Kinetics of RSSH generation were conducted as previously described.[5] Stock solutions of RSSH […]
precursor (10 mM in DMSO), HPE-IAM (100mM in DMSO), and porcine liver esterase (PLE, 2000 U/mL in ammonium bicarbonate buffer) were freshly prepared. RSSH precursors (25 μM) were […]
then immediately incubated with HPE-IAM (250 μM) and PLE (1 U/mL, from Sigma-Aldrich, […]
E3019-20KU, ≥ 15 U/mg protein) in ammonium bicarbonate buffer (100 mM, pH 7.4) containing diethylenetriaminepentaacetic acid (DTPA, 100 μM) at 37 °C. At the indicated time points, 500 μL […]
aliquots were withdrawn, quenched with concentrated formic acid (5 μL, […]), and […]
ultracentrifuged at 12,500 rpm for 5 min. The resulting supernatants were diluted with acetonitrile […]
(200 μL supernatant + 300 μL of acetonitrile) and analyzed by UPLC–MS using a Waters Acquity […]
(MSe, 10 scans/s). Chromatographic separation was performed on a C18 reverse-phase column […]
(Waters Acquity BEH C18, 2.1 × 50 mm, 1.7 μm) at 4 °C, with a flow rate of 0.3 mL/min and the […]
following gradient (v/v; water containing 0.1% formic acid as solvent A, acetonitrile as solvent B):
B; 8.5–10 min, return to 100% A. The injection volume was 5 μL. Mass spectral data were […]
processed using MassLynx 4.1, and extracted ion chromatograms (EICs) corresponding to the […]
exact masses of the RSSH precursor, intermediate, and the trapped product (RSS–HPE-AM) […]
were integrated to quantify substrate consumption and product formation. Kinetic data were fitted […]
to a single exponential curve using Origin. All experiments were performed in triplicate (n = 3), […]
and results are reported as mean ± standard deviation (SD).
HRMS Data for Compounds Formed during RSSH Generation from AST-2 […]
Figure S2. HRMS of the peak eluting at 5.6 min corresponding to AST-2.
Esterase-mediated hydrolysis of AST-2-TPP monitored by UPLC-MS […]
Figure S11. (A) Representative UPLC-MS traces showing esterase-mediated hydrolysis of AST-2-TPP (25 […]
μM) in the presence of HPE-IAM (250 μM) in ammonium bicarbonate buffer (pH 7.4, 100 mM) containing […]
the metal chelator DTPA (100 μM) at 37 °C. […]

In a further data set the test system is H9c2 cells. Put plainly: Cytoprotection against DOX-induced toxicity, CCK-8 assay. Type of data set: cell-based. To be noted: 4 h pretreatment, then 24 h co-treatment with DOX 5 μM. The protocol:
We evaluated the cytoprotective effects of RSSH precursors against DOX-induced cardiotoxicity in H9c2 cardiomyoblasts. First, we assessed the cytotoxicity of the RSSH donors (AST-2, APT-1, AST-2-TPP, and APT-1-TPP) using the CCK-8 assay.[24] […] To evaluate cytoprotection, H9c2 cells were pretreated with RSSH donors for 4 h, followed by 24 h co-treatment with DOX (5 μM). As expected, DOX alone reduced cell viability to ca. 50% (Figure 4a). […] Although both compounds were protective, no enhancement of potency was observed upon TPP conjugation. […] A distinctive feature of our study is the direct comparison between mitochondria-targeted and non-targeted RSSH donors. […] TPP conjugation only modestly enhances the cytoprotective effects of RSSH donors under our experimental conditions. This outcome may reflect the intrinsic high efficacy of non-targeted RSSH donors, thereby limiting the additional benefit of mitochondrial targeting.
Figure 4. Protective effects of RSSH donors against DOX-induced cytotoxicity in H9c2 cells. Cells were pretreated with RSSH donors for 4 h, followed by exposure to DOX (5 μM) for an additional 24 h. Cell viability was assessed using the cell counting Kit-8 (CCK-8) assay. Results are expressed as mean ± SEM, n = 3; *P < 0.05, **P < 0.01, ***P < 0.001, ****P < 0.0001. Ctl = vehicle-treated group (0.01% DMSO in medium). […]
Cytoprotective Effects of RSSH Donors against Doxorubicin Toxicity
Cytoprotective studies were performed as previously described.[8] Briefly, H9c2 cells, HepG2 cells, MDA-MB-468 cells, and MCF-7 cells were seeded at a density of 7 x 10^3 cells/well. […] Additionally, in the vehicle control group, cells were treated with medium (DMEM with 10% FBS) containing 0.01% DMSO only. The cells were then further incubated for an additional 4 h before being treated with DOX (10 μL/well, with final concentration of 5 μM). After a 24 h co-incubation with DOX, each well was carefully washed three times with PBS (pH 7.4) and 100 μL o f F B S-free medium containing 10% v/v CCK-8 (Dojindo) was added. The plates were then incubated for 1-2 h before measuring absorbance at […]
The relative % cell viability was calculated as 100 times the ratio of Abs450 (RSSH donor + DOX-exposed) to Abs450 (vehicle, non-DOX-exposed). Each treatment condition was performed in 6 technical replicates per biological replicate, and the experiment was independently repeated three times (n = 3 biological replicates). Data are presented as mean ± SEM. […]

For the compound `CC(=O)NC(C(=O)N(C)CCC[P+](c1ccccc1)(c1ccccc1)c1ccccc1)C(C)(C)SSC(=O)N(C)CCOC(C)=O` (centres unmarked) [APT-1-TPP], in data set [1], the half-life at 25 µM was found to be 5.2 ± 0.2 min; the “first-order rate constant k (k1) of precursor consumption / deacetylation” value is 0.1338 ± 0.0049 min⁻¹ and 0.134 ± 0.005 min⁻¹; the “first-order rate constant k (k2) of RSS-HPE-AM formation (RSSH release)” value (“first-order rate constant k (k2)” below) worked out at 0.0056 ± 0.0004 min⁻¹. Further, the “protection against DOX-induced cytotoxicity” value in the data set on H9c2 cells was “dose-dependent cytoprotective effect”.

For `COC(=O)C(NC(C)=O)C(C)(C)SSC(=O)N(C)CCOC(C)=O` (centres unmarked) [APT-1], in data set [1], the half-life at 25 µM is 17.1 ± 0.4 min, the “first-order rate constant k (k1) of precursor consumption / deacetylation” value is 0.0406 ± 0.0010 min⁻¹ and the “first-order rate constant k (k2)” value stood at 0.0067 ± 0.0006 min⁻¹. Also, the “protection against DOX-induced cytotoxicity” value in the data set with H9c2 cells is given as “dose-dependent cytoprotective effect”.

Take `COC(=O)SSC(C)(C)C(NC(C)=O)C(=O)N(C)CCC[P+](c1ccccc1)(c1ccccc1)c1ccccc1` (centres unmarked) [AST-2-TPP]: in data set [1], the half-life at 25 µM was 20.7 ± 0.6 min; the “first-order rate constant k (k1) of precursor consumption / deacetylation” value was found to be 0.0335 ± 0.0010 min⁻¹; the “first-order rate constant k (k2)” value is 0.03467 ± 0.0028 min⁻¹ and 0.0347 ± 0.0028 min⁻¹. For the same compound, in the data set on H9c2 cells, the “concentration of maximal protection” value was found to be 25 µM, the “concentration with significant protective effects” value is at least 1 µM and the “protection against DOX-induced cytotoxicity” value is given as “dose-dependent protection”.

As to `COC(=O)SSC(C)(C)C(NC(C)=O)C(=O)OC` (centres unmarked) [AST-2], in data set [1], the half-life at 25 µM came out at 50.1 ± 1.8 min, the “first-order rate constant k (k1) of precursor consumption / deacetylation” value worked out at 0.0139 ± 0.0005 min⁻¹ and the “first-order rate constant k (k2)” value worked out at 0.0144 ± 0.0006 min⁻¹. Moreover, in the data set with H9c2 cells, the “concentration of maximal protection” value came to 25 µM, the “concentration with significant protective effects” value is at least 1 µM and the “protection against DOX-induced cytotoxicity” value was “dose-dependent protection”.
